Data on 26 compounds can be found in patent US10385022B2, “3-amino-pyridines as GPBAR1 agonists” (HOFFMANN-LA ROCHE INC., priority 2011, dated 2019).

This assay has as its target human GPBAR1 receptor (Homo sapiens (Human), UniProt Q8TDU6). Kind of assay: functional cAMP assay in CHO-dhfr(minus) cells expressing human GPBAR1 receptors. The class given is cell-based. Conditions: CHO-dhfr(minus) cells expressing human GPBAR1, 30 min at 30° C. The method, then: The final clone was verified by DNA sequence analysis. The plasmid was transfected into CHO cells deficient in dihydrofolate reductase activity (CHO-dhfr-) using Lipofectamine plus (Invitrogen). Clones were isolated in limited dilution conditions and identified by activities in the cAMP assay using lithocholic acid as agonist.
EC50 values were determined using Activity Base analysis (ID Business Solution, Limited). […] Specificity for GPBAR1 was tested in non-transfected CHO cells in the same assay as above.
In general terms: Cyclic AMP is a second messenger, typically raised through Gs and lowered through Gi signalling.

Chain of human GPBAR1 receptor (Q8TDU6 whole entry): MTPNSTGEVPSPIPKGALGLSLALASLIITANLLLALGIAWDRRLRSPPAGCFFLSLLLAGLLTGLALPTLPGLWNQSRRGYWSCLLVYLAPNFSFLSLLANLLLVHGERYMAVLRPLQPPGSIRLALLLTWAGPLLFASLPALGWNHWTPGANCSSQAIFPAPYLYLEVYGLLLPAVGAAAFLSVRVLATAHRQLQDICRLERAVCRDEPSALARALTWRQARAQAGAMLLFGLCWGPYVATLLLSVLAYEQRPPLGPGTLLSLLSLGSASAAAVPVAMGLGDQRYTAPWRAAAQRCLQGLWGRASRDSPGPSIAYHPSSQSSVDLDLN

As to `COc1c(-c2ccncc2N(C)C(=O)c2cc(C(F)(F)F)cc(C(F)(F)F)c2)ccc(F)c1F` [Example 60, N-[4-(3,4-Difluoro-2-methoxy-phenyl)-pyridin-3-yl]-N-methyl-3,5-bis-trifluoromethyl-benzamide], the concentration giving a half-maximal response (EC50) (in general, the concentration giving half of the maximal effect) is 114 nM. That is a sub-micromolar value.

Compound `CN(C(=O)c1cc(C(F)(F)F)cc(C(F)(F)F)c1)c1cnccc1-c1cc(F)ccc1F` [Example 61, N-[4-(2,5-Difluoro-phenyl)-pyridin-3-yl]-N-methyl-3,5-bis-trifluoromethyl-benzamide] came in with a concentration giving a half-maximal response (EC50) of 72 nM. With `COc1cccc(-c2ccncc2N(C)C(=O)c2cc(C(F)(F)F)cc(C(F)(F)F)c2)c1F` [Example 62, N-[4-(2-Fluoro-3-methoxy-phenyl)-pyridin-3-yl]-N-methyl-3,5-bis-trifluoromethyl-benzamide], the concentration giving a half-maximal response (EC50) came out at 337 nM.

Compound `COc1ccc(F)c(-c2ccncc2N(C)C(=O)c2cc(C(F)(F)F)cc(C(F)(F)F)c2)c1` [Example 63, N-[4-(2-Fluoro-5-methoxy-phenyl)-pyridin-3-yl]-N-methyl-3,5-bis-trifluoromethyl-benzamide] yielded an EC50 of 23 nM. The same measure for `CN(C(=O)c1cc(C(F)(F)F)cc(C(F)(F)F)c1)c1cnccc1-c1c(F)cccc1F` [Example 64, N-[4-(2,6-Difluoro-phenyl)-pyridin-3-yl]-N-methyl-3,5-bis-trifluoromethyl-benzamide]: 14 nM; for `CN(C(=O)c1cc(C(F)(F)F)cc(C(F)(F)F)c1)c1cnccc1-c1cccc(F)c1Cl` [Example 65, N-[4-(2-Chloro-3-fluoro-phenyl)-pyridin-3-yl]-N-methyl-3,5-bis-trifluoromethyl-benzamide]: 102 nM; for `COc1cccc(F)c1-c1ccncc1N(C)C(=O)c1cc(C(F)(F)F)cc(C(F)(F)F)c1` [Example 66, N-[4-(2-Fluoro-6-methoxy-phenyl)-pyridin-3-yl]-N-methyl-3,5-bis-trifluoromethyl-benzamide]: 8 nM. The same measure for `CN(C(=O)c1cc(C(F)(F)F)cc(C(F)(F)F)c1)c1cnccc1-c1ccc(F)cc1Cl` [Example 67, N-[4-(2-Chloro-4-fluoro-phenyl)-pyridin-3-yl]-N-methyl-3,5-bis-trifluoromethyl-benzamide]: 56 nM. With `CN(C(=O)c1cc(C(F)(F)F)cc(C(F)(F)F)c1)c1cnccc1-c1ncccc1F` [Example 68, N-(3-Fluoro-[2,4′]bipyridinyl-3′-yl)-N-methyl-3,5-bis-trifluoromethyl-benzamide] the figure was 801 nM; with `COc1cnccc1-c1ccncc1N(C)C(=O)c1cc(C(F)(F)F)cc(C(F)(F)F)c1` [Example 69, N-(3′-Methoxy-[4,4′]bipyridinyl-3-yl)-N-methyl-3,5-bis-trifluoromethyl-benzamide], 377 nM. In turn, `CN(C(=O)c1cc(C(F)(F)F)cc(C(F)(F)F)c1)c1cnccc1-c1ccncc1F` [Example 70, N-(3′-Fluoro-[4,4′]bipyridinyl-3-yl)-N-methyl-3,5-bis-trifluoromethyl-benzamide] yielded an EC50 of 485 nM. With `CN(C(=O)c1cc(C(F)(F)F)cc(C(F)(F)F)c1)c1cnccc1-c1cccc(Cl)n1` [Example 71, N-(6-Chloro-[2,4′]bipyridinyl-3′-yl)-N-methyl-3,5-bis-trifluoromethyl-benzamide] the figure was 1540 nM; with `Cc1cc(F)ccc1-c1cc(Cl)ncc1N(C)C(=O)c1cc(C(F)(F)F)cc(C(F)(F)F)c1` [Example 72, N-[6-Chloro-4-(4-fluoro-2-methyl-phenyl)-pyridin-3-yl]-N-methyl-3,5-bis-trifluoromethyl-benzamide], 593 nM. With `CN(C(=O)c1cc(C(F)(F)F)cc(C(F)(F)F)c1)c1cnc(Cl)cc1-c1ncccc1Cl` [Example 73, N-(3,6′-Dichloro-[2,4′]bipyridinyl-3′-yl)-N-methyl-3,5-bis-trifluoromethyl-benzamide] the figure was 1830 nM; with `CN(C(=O)c1cc(Br)cc(C(F)(F)F)c1)c1cnccc1-c1ccccc1Cl` [Example 74, 3-Bromo-N-[4-(2-chloro-phenyl)-pyridin-3-yl]-N-methyl-5-trifluoromethyl-benzamide], 34 nM; with `COC(=O)c1cc(C(=O)N(C)c2cnccc2-c2ccccc2Cl)cc(C(F)(F)F)c1` [Example 75, N-[4-(2-Chloro-phenyl)-pyridin-3-yl]-N-methyl-5-trifluoromethyl-isophthalamic acid methyl ester], 452 nM. With `CN(C(=O)c1cc(CO)cc(C(F)(F)F)c1)c1cnccc1-c1ccccc1Cl` [Example 76, N-[4-(2-Chloro-phenyl)-pyridin-3-yl]-3-hydroxymethyl-N-methyl-5-trifluoromethyl-benzamide] the figure was 1960 nM; with `CN(C(=O)c1cc(C(C)(C)O)cc(C(F)(F)F)c1)c1cnccc1-c1ccccc1Cl` [Example 77, N-[4-(2-Chloro-phenyl)-pyridin-3-yl]-3-(1-hydroxy-1-methyl-ethyl)-N-methyl-5-trifluoromethyl-benzamide], 715 nM; with `CN(C(=O)c1cc(C(F)(F)F)cc(C(F)(F)F)c1)c1cnccc1-c1ccccc1Cl` [Example 78, N-[4-(2-Chloro-phenyl)-pyridin-3-yl]-N-methyl-3,5-bis-trifluoromethyl-benzamide], 21 nM. `CN(C(=O)c1cc(O)cc(C(F)(F)F)c1)c1cnccc1-c1ccccc1Cl` [Example 79, N-[4-(2-Chloro-phenyl)-pyridin-3-yl]-3-hydroxy-N-methyl-5-trifluoromethyl-benzamide] came in with an EC50 of 1380 nM. `CN(C(=O)c1ccc(Br)c(C(F)(F)F)c1)c1cnccc1-c1ccccc1Cl` [Example 80, 4-Bromo-N-[4-(2-chloro-phenyl)-pyridin-3-yl]-N-methyl-3-trifluoromethyl-benzamide] had an EC50 of 299 nM. The same measure for `Cc1ccc(Cl)cc1-c1ccncc1N(C)C(=O)c1cc(C(F)(F)F)cc(C(F)(F)F)c1` [Example 82, N-[4-(5-Chloro-2-methyl-phenyl)-pyridin-3-yl]-N-methyl-3,5-bis-trifluoromethyl-benzamide]: 234 nM. With `COC(=O)c1ccc(C)c(-c2ccncc2N(C)C(=O)c2cc(C(F)(F)F)cc(C(F)(F)F)c2)c1` [Example 83, 3-{3-[(3,5-Bis-trifluoromethyl-benzoyl)-methyl-amino]-pyridin-4-yl}-4-methyl-benzoic acid methyl ester] the figure was 376 nM; with `Cc1ccc(C(=O)O)cc1-c1ccncc1N(C)C(=O)c1cc(C(F)(F)F)cc(C(F)(F)F)c1` [Example 84, 3-{3-[(3,5-Bis-trifluoromethyl-benzoyl)-methyl-amino]-pyridin-4-yl}-4-methyl-benzoic acid], 2020 nM; with `O=C(c1cc(C(F)(F)F)cc(C(F)(F)F)c1)N(CC(F)(F)F)c1cnccc1-c1ccccc1Cl` [Example 85, N-[4-(2-Chloro-phenyl)-pyridin-3-yl]-N-(2,2,2-trifluoro-ethyl)-3,5-bis-trifluoromethyl-benzamide], 200 nM. The same measure for `O=C(c1cc(C(F)(F)F)cc(C(F)(F)F)c1)N(CC1CC1)c1cnccc1-c1ccccc1Cl` [Example 86, N-[4-(2-Chloro-phenyl)-pyridin-3-yl]-N-cyclopropylmethyl-3,5-bis-trifluoromethyl-benzamide]: 267 nM.
